From patent US4656247A, “Effective hormonal peptides: D-3-QA1 6-LHRH” (Board of Regents, The University of Texas System, priority 1985, dated 1987)

Columns and labels:
[1] = tested on: 21 day old female rats; assay: In vivo assay in rats for release of LH and FSH; set-up: species or system rat; settings: for LH ng/ml Serum ± SEM: Table VII; for LH ± SEM ng/ml serum / FSH ± SEM ng/ml serum: Table XI, mean 5-6; for Serum LH ng/ml ± SEM / Serum FFSH ng/ml ± SEM: Table VI, sampling time not given
Description: In vivo rat assay performed by a modification of the method of Bowers, C. Y. et al. Endocrinology, 106, 674 (1980). 21 day old female rats were injected sc with saline or peptide. Blood samples for the RIAs of LH and FSH were collected at +15, +60, +120, or +180 minutes. (Table VI-XI).

[2] = Peptides tested biologically (summary statement); settings: when tested biologically
[3] = tested on: pituitary cells from 21 day old rats; assay: In vitro pituitary incubate assay (release of LH and FSH); format: cell-based, rat
Description: The data in Tables IV and V are from the in vitro assay of the peptides with the pituitary incubate. This assay measures the release of LH and FSH in an in vitro system with pituitary cells from 21 day old rats. See, Bowers, C. Y. et al. on the inhibitory effects of leutinizing hormone releasing hormone analogs. Endocrinology, 106: 674 (1980).

[4] = tested on: advanced prostatic carcinoma; settings: subcutaneous, daily; cited from earlier work
[5] = tested on: men; settings: chronic administration; cited from earlier work
[6] = 150 ng sc, first column (+ 2 hrs as in upper part)
[7] = 150 ng sc, second column (+3 hrs as in upper part)

Q: Which “LH ng/ml Serum ± SEM” value ([1]; ± 15 min) does the source give for `CCNC(=O)[C@@H]1CCCN1C(=O)[C@H](CCCNC(=N)N)NC(=O)[C@H](CC(C)C)NC(=O)[C@@H](Cc1c[nH]c2ccccc12)NC(=O)[C@H](Cc1ccc(O)cc1)NC(=O)[C@H](CO)NC(=O)[C@H](Cc1c[nH]c2ccccc12)NC(=O)[C@H](Cc1c[nH]cn1)NC(=O)[C@@H]1CCC(=O)N1` [D-Trp^6 Pro^9 Net-LHRH, pyroGluHis-Trp-Ser-Tyr-D-Trp-Leu-Arg-Pro-EA**] here?
A: 59 ± 10 ng/mL

Q: And the “LH ng/ml Serum ± SEM” value ([1]; ± 60 min)?
A: 228 ± 41 ng/mL

Q: What about the “LH ± SEM ng/ml serum” value ([1]; 150 ng sc, + 2 hrs) of the same molecule?
A: 184 ± 29 ng/ml serum

Q: And the “LH ± SEM ng/ml serum” value ([1]; 150 ng sc, +3 hrs)?
A: 103 ± 9 ng/ml serum

Q: And the “FSH ± SEM ng/ml serum” value [1, 6]?
A: 2260 ± 294 ng/ml serum

Q: What about the “FSH ± SEM ng/ml serum” value [1, 7] of the same molecule?
A: 1763 ± 148 ng/ml serum

Q: Which results are given for `CC(C)C[C@H](NC(=O)[C@@H](Cc1cccnc1)NC(=O)[C@H](Cc1ccc(O)cc1)NC(=O)[C@H](CO)NC(=O)[C@H](Cc1c[nH]c2ccccc12)NC(=O)[C@H](Cc1c[nH]cn1)NC(=O)[C@@H]1CCC(=O)N1)C(=O)N[C@@H](CCCNC(=N)N)C(=O)N1CCC[C@H]1C(=O)NCC(N)=O` [D-Pal^6 -LHRH, pyroGlu-His-Trp-Ser-Tyr-D-3-Pal-Leu-Arg-Pro-GlyNH2]?
A: Serum LH ng/ml ± SEM ([1]; 5 ng/rat sc): 7 ± 1 ng/mL; LH ± SEM ng/ml serum ([1]; 50 ng sc, + 2 hrs): 108 ± 17 ng/ml serum; LH ± SEM ng/ml serum ([1]; 50 ng sc, +3 hrs): 20 ± 2.3 ng/ml serum; FSH ± SEM ng/ml serum ([1]; 50 ng sc, first column (+ 2 hrs as in upper part)): 1727 ± 222 ng/ml serum; FSH ± SEM ng/ml serum ([1]; 50 ng sc, second column (+3 hrs as in upper part)): 1312 ± 163 ng/ml serum; LH ± SEM ng/ml serum ([1]; 150 ng sc, + 2 hrs): 144 ± 27 ng/ml serum; LH ± SEM ng/ml serum ([1]; 150 ng sc, +3 hrs): 38 ± 6.3 ng/ml serum; FSH ± SEM ng/ml serum [1, 6]: 2362 ± 293 ng/ml serum; FSH ± SEM ng/ml serum [1, 7]: 1617 ± 143 ng/ml serum; release of LH ([1]; dosage of 5 ng): significantly released LH; LH released relative to LHRH, corrected for the level of LH before addition of the peptides ([1]; dosage of 50 ng): ~50 times; potency compared with LHRH [2]: significantly more potent than LHRH itself; activity for the release of FSH (D-Pal^6 vs D-Qal^6, words) ([3]; at 0.1 ng, Table IV): same essential equivalents; activity for the release of LH (D-Pal^6 vs D-Qal^6, words) ([3]; at 0.1 ng, Table IV): essentially equivalent in activity; potency compared with D-Trp^6 -LHRH, inferred via D-Qal^6 -LHRH ([3]; inference from Table IV and comparable assays): essentially equipotent

Q: For `CC(C)C[C@H](NC(=O)[C@@H](Cc1c[nH]c2ccccc12)NC(=O)[C@H](Cc1ccc(O)cc1)NC(=O)[C@H](CO)NC(=O)[C@H](Cc1c[nH]c2ccccc12)NC(=O)[C@H](Cc1c[nH]cn1)NC(=O)[C@@H]1CCC(=O)N1)C(=O)N[C@@H](CCCNC(=N)N)C(=O)N1CCC[C@H]1C(=O)NCC(N)=O` [D-Trp^6 -LHRH, pyroGluHis-Trp-Ser-Tyr-D-Trp-Leu-Arg-Pro-Gly-NH2], which “clinical effect in patients with more advanced prostatic disease” value [4] is on record?
A: pain from bone metastases was relieved

Q: And the “clinical effect in patients with urinary obstruction” value [4]?
A: noticeable clinical improvement

Q: And the “LH ng/ml Serum ± SEM” value ([1]; 10 mg/rat sc, ± 60 min)?
A: 31 ± 6 ng/mL

Q: What about the “LH ng/ml Serum ± SEM” value ([1]; ± 15 min) of the same molecule?
A: 51 ± 10 ng/mL

Q: And the “LH ng/ml Serum ± SEM” value ([1]; ± 60 min)?
A: 259 ± 34 ng/mL

Q: What about the “LH ± SEM ng/ml serum” value ([1]; 150 ng sc, + 2 hrs) of the same molecule?
A: 230 ± 41 ng/ml serum

Q: And the “LH ± SEM ng/ml serum” value ([1]; 150 ng sc, +3 hrs)?
A: 117 ± 9 ng/ml serum

Q: What about the “FSH ± SEM ng/ml serum” value [1, 6] of the same molecule?
A: 2332 ± 388 ng/ml serum

Q: And the “FSH ± SEM ng/ml serum” value [1, 7]?
A: 2065 ± 151 ng/ml serum

Q: And the “effect on Leydig cell function and serum steroid levels” value [5]?
A: suppression of Leydig cell function and decreases in serum levels of testosterone, dihydrotestosterone and estradiol

Q: For “LHRH: leutinizing hormone releasing hormone, the peptide hormone which exists naturally in the hypothalamus”, which “Serum FFSH ng/ml ± SEM” value ([1]; 15 ng/rat sc) is on record?
A: 475 ± 43 ng/mL

Q: What about the “Serum LH ng/ml ± SEM” value ([1]; 15 ng/rat sc) of the same molecule?
A: 1.3 ± 0.2 ng/mL

Q: What about the “Serum FFSH ng/ml ± SEM” value ([1]; 50 ng/rat sc) of the same molecule?
A: 572 ± 68 ng/mL

Q: What about the “Serum LH ng/ml ± SEM” value ([1]; 50 ng/rat sc) of the same molecule?
A: 3.2 ± 0.3 ng/mL

Q: And the “Serum FFSH ng/ml ± SEM” value ([1]; 150 ng/rat sc)?
A: 839 ± 73 ng/mL

Q: What about the “Serum LH ng/ml ± SEM” value ([1]; 150 ng/rat sc) of the same molecule?
A: 12 ± 3 ng/mL

Q: What about the “LH ng/ml Serum ± SEM” value ([1]; ± 15 min) of the same molecule?
A: 49 ± 10 ng/mL

Q: And the “LH ng/ml Serum ± SEM” value ([1]; ± 60 min)?
A: 5.5 ± 0.9 ng/mL

Q: What about the “LH ± SEM ng/ml serum” value ([1]; 150 ng sc, + 2 hrs) of the same molecule?
A: .18 ± 0.07 ng/ml serum

Q: And the “LH ± SEM ng/ml serum” value ([1]; 150 ng sc, +3 hrs)?
A: 0.66 ± 0.46 ng/ml serum

Q: And the “FSH ± SEM ng/ml serum” value [1, 6]?
A: 337 ± 20 ng/ml serum

Q: What about the “FSH ± SEM ng/ml serum” value [1, 7] of the same molecule?
A: 487 ± 72 ng/ml serum

Q: And the “release of LH” value ([1]; at 15 ng)?
A: inactive

Q: Which “LH ± SEM ng/ml serum” value ([1]; 150 ng sc, + 2 hrs) does the source give for `CCNC(=O)[C@@H]1CCCN1C(=O)[C@H](CCCNC(=N)N)NC(=O)[C@H](CC(C)C)NC(=O)[C@@H](Cc1cccnc1)NC(=O)[C@H](Cc1ccc(O)cc1)NC(=O)[C@H](CO)NC(=O)[C@H](Cc1c[nH]c2ccccc12)NC(=O)[C@H](Cc1c[nH]cn1)NC(=O)[C@@H]1CCC(=O)N1` [Peptide 21436, pryoGlu-His-Trp-Ser-Tyr-D-3-Pal-Leu-Arg-Pro-NHC2 H5] here?
A: 237 ± 52 ng/ml serum

Q: What about the “LH ± SEM ng/ml serum” value ([1]; 150 ng sc, +3 hrs) of the same molecule?
A: 106 ± 13 ng/ml serum

Q: What about the “FSH ± SEM ng/ml serum” value [1, 6] of the same molecule?
A: 2415 ± 361 ng/ml serum

Q: What about the “FSH ± SEM ng/ml serum” value [1, 7] of the same molecule?
A: 2205 ± 298 ng/ml serum
